Source: patent US7524844B2, “Dipeptidyl peptidase IV inhibitors, process for their preparation and compositions containing them” (Glenmark Pharmaceuticals S.A., priority 2004, dated 2009)
Counter-ions that a name gives are not always drawn.

Molecular target: T1, human recombinant Dipeptidyl peptidase IV enzyme (DPP-IV) (Homo sapiens, UniProt P27487)
T1 construct: purchased R&D Systems Inc. of Minneapolis, Minn
Experiment: in-vitro DPP-IV assay (cleavage of AMC from Gly-Pro-AMC)
Format: biochemical
Details: for IC50: human recombinant DPP-IV, Gly-Pro-AMC substrate, 30° C., 30 minutes, read-out: DPP-IV inhibition using human recombinant DPP-IV enzyme, IC50
Procedure: DPP-IV activity was determined by the cleavage rate of 7-amino-4-methyl coumarin (AMC) from the synthetic substrate Glycyl-Prolyl-AMC. In brief, the assay was conducted by adding 10 ng of human recombinant Dipeptidyl peptidase IV enzyme (DPP-IV, available commercially from R&D Systems Inc. of Minneapolis, Minn.) in 50 μl of the assay buffer (25 mM Tris, pH 7.4, 140 mM NaCl, 10 mM KCl, 1% BSA) to 96 well black flat bottom microtiter plates. The reaction was initiated by adding 50 μl of 100 μM substrate Gly-Pro-AMC. The incubation was carried out in the kinetic mode at 30° C. for 30 minutes. Fluorescence was measured using Fluorostar with an excitation filter of 380 nm and emission filter of 460 nm. Test compounds and solvent controls were added as 1 μl additions. A standard curve of free amino methyl coumarin (AMC) was generated using 0-100 μM AMC in the assay buffer. The curve generated, which was linear was used for the interpolation of catalytic activity.
Test compounds dissolved in DMSO at 5-6 concentrations were tested in duplicate along with the solvent control and blank samples. Percent inhibition was calculated at each concentration with respect to the solvent control sample (no test compound added). […]

T1 sequence (P27487 whole entry): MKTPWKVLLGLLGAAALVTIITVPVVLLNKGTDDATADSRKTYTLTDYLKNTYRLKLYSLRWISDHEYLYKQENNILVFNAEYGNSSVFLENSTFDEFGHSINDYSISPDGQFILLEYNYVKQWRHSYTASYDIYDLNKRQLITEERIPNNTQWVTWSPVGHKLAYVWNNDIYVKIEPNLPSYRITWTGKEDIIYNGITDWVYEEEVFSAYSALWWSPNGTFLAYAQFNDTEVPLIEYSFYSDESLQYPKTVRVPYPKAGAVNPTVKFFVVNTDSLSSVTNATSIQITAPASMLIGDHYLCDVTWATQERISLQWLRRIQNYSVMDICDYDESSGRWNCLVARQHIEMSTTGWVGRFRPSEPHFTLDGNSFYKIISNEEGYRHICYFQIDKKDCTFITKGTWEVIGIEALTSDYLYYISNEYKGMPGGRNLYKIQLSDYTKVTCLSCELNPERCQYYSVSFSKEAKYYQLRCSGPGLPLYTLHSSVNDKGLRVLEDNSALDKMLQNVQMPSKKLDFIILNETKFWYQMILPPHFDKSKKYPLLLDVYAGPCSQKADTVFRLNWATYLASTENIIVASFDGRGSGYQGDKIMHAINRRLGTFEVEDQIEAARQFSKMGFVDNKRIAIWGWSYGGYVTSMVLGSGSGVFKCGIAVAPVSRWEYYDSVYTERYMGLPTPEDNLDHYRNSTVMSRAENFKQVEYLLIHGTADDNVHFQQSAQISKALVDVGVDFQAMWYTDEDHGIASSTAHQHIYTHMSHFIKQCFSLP

SMILES	inhibition at 0.3 µM (at 300 nM, printed in the IC50 (nM) column, read-out: DPP-IV inhibition using human recombinant DPP-IV enzyme, percent inhibition)	IC50
N#C[C@@H]1CCCN1C(=O)CNC1CCC(C(=O)Nc2cc(F)c(F)cc2F)C1 (mixture of isomers) [Example 74, 1-((1SR,3RS)-3-{2-[(2S)-2-Cyanopyrrolidine-1-yl]-2-oxoethylamino}cyclopentyl-carboxamido)-2,4,5-trifluorobenzene]	2%	–
N#C[C@@H]1CCCN1C(=O)CNC1CCC(CN2CCC[C@H]2C(N)=O)C1 (mixture of isomers) [Example-10, (2S)-1-((1SR,3RS)-3-{2-[(2S)-2-Cyanopyrrolidin-1-yl]-2-oxoethylamino}cyclopentyl-methyl)pyrrolidine-2-carboxamide]	–	0.0644 µM
N#C[C@@H]1C[C@H](F)CN1C(=O)CN[C@H]1CC[C@@H](Cn2nccn2)C1 [Example-58, (2S,4S)-1-{2-[(1S,3R)-3-(2H-1,2,3-Triazol-2-ylmethyl)cyclopentylamino]acetyl}-4-fluoropyrrolidine-2-carbonitrile]	–	0.0106 µM
N#C[C@@H]1CCCN1C(=O)CN[C@@H]1CC[C@H](Cn2nc3ccccc3n2)C1 [Example-71, (2S)-1-{2-[(3S,1R)-3-(2H-benzo[d][1,2,3]triazol-2-ylmethyl)cyclopentylamino]-acetyl}pyrrolidine-2-carbonitrile]	–	0.00925 µM
N#Cc1cccn1C[C@H]1CC[C@@H](NCC(=O)N2CCC[C@H]2C#N)C1 [Example-26, 1-((1S,3R)-3-{2-[(2S)-2-Cyanopyrrolidin-1-yl]-2-oxoethylamino}cyclopentylmethyl)-1H-pyrrole-2-carbonitrile]	–	0.00594 µM
N#C[C@@H]1C[C@H](F)CN1C(=O)CN[C@H]1CC[C@@H](Cn2ccnn2)C1 [Example-57]	–	0.00588 µM
N#C[C@@H]1CCCN1C(=O)CN[C@H]1CC[C@@H](Cn2cccn2)C1 [Example-28, (2S)-1-{2-[(1S,3R)-3-(1H-Pyrazol-1-ylmethyl)cyclopentylamino]acetyl}pyrrolidine-2-carbonitrile]	–	0.0373 µM
N#C[C@@H]1CCCN1C(=O)CNC1CCC(C(=O)N2CCC[C@H]2C#N)C1 (mixture of isomers) [Example-11]	–	0.103 µM
CCCCc1nc(Cl)c(CO)n1CC1CCC(NCC(=O)N2CCC[C@H]2C#N)C1 (mixture of isomers) [Example-31, (2S)-1-{2-[(3SR,1RS)-3-(2-Butyl-4-chloro-5-hydroxymethyl-1H-1-imidazolylmethyl)-cyclopentylamino]acetyl}pyrrolidine-2-carbonitrile]	–	0.0101 µM
N#C[C@@H]1CCCN1C(=O)CNC1CCC(C(=O)NC23CC4CC(CC(C4)C2)C3)C1 (mixture of isomers) [Example 72, 1-((1SR,3RS)-3-{2-[(2S)-2-Cyanopyrrolidin-1-yl]-2-oxoethylamino}cyclopentyl-carboxamido)adamantine]	–	0.209 µM
N#C[C@@H]1CCCN1C(=O)CNC1CCC(C(=O)Nc2cc(F)ccc2F)C1 (mixture of isomers) [Example 73, 1-((1SR,3RS)-3-{2-[(2S)-2-Cyanopyrrolidin-1-yl)-2-oxoethylamino}cyclopentyl-carboxamido)-2,5-difluorobenzene]	–	0.0492 µM
N#C[C@@H]1CCCN1C(=O)CN[C@@H]1CC[C@H](CN2CCCS2(=O)=O)C1 [Example-18, (2S)-1-{2-[(3S,1R)-3-(1,1-Dioxo-2-isothiazolidinylmethyl)cyclopentylamino]acetyl}-pyrrolidine-2-carbonitrile]	–	0.0294 µM
N#C[C@@H]1C[C@H](F)CN1C(=O)CN[C@@H]1CC[C@H](Cn2cncn2)C1 [Example-43, (2S,4S)-1-{2-[(3S,1R)-3-(1H-1,2,4-Triazol-1-ylmethyl)cyclopentylamino]acetyl}-4-fluoropyrrolidine-2-carbonitrile hydrochloride]	–	0.00625 µM
N#C[C@@H]1CCCN1C(=O)CN[C@@H]1CC[C@H](CN2CCc3ccccc32)C1 [Example-63]	–	0.0219 µM
N#C[C@@H]1CCCN1C(=O)CN[C@@H]1CC[C@H](Cn2cncn2)C1 [Example-37, (2S)-1-{2-[(3S,1R)-3-(1H-1,2,4-Triazol-1-ylmethyl)cyclopentylamino]acetyl}-pyrrolidine-2-carbonitrile]	–	0.0051 µM
N#CC1CCN(C[C@H]2CC[C@@H](NCC(=O)N3CCC[C@H]3C#N)C2)CC1 (mixture of isomers) [Example-21, (2S)-1-{2-[(3SR,1RS)-3-(4-Cyanopiperidinylmethyl)cyclopentylamino]acetyl}-pyrrolidine-2-carbonitrile]	–	0.033 µM
N#C[C@@H]1CCCN1C(=O)CN[C@H]1CC[C@@H](Cn2nccn2)C1 [Example-56, (2S)-1-{2-[(1S,3R)-3-(2H-1,2,3-Triazol-2-ylmethyl)cyclopentylamino]acetyl}-pyrrolidine-2-carbonitrile]	–	0.0789 µM
N#Cc1ncn(CC2CCC(NCC(=O)N3CCC[C@H]3C#N)C2)c1C#N (mixture of isomers) [Example-33, 1-((1SR,3RS)-3-{2-[(2S)-2-Cyanopyrrolidin-1-yl]-2-oxoethylamino}cyclopentyl-methyl)-1H-4,5-imidazoledicarbonitrile]	–	0.00505 µM
N#C[C@@H]1CCCN1C(=O)CN[C@@H]1CC[C@H](CN2Cc3ccccc3C2)C1 [Example-65, (2S)-1-{2-[(3S,1R)-3-(2,3-Dihydro-1H-2-isoindolylmethyl)cyclopentylamino]acetyl}-pyrrolidine-2-carbonitrile]	–	0.0132 µM
Cc1ccc(C)n1C[C@H]1CC[C@@H](NCC(=O)N2C[C@@H](F)C[C@H]2C#N)C1 [Example-25, (2S,4S)-1-{2-[(3S,1R)-3-(2,5-Dimethyl-1H-1-pyrrolylmethyl)cyclopentylamino]-acetyl}-4-fluoropyrrolidine-2-carbonitrile]	–	0.0074 µM
N#C[C@@H]1CCCN1C(=O)CN[C@H]1CC[C@@H](Cn2ncc3ccccc32)C1 [Example-67, (2S)-1-{2-[(1S,3R)-3-(1H-Indazol-1-ylmethyl)cyclopentylamino]acetyl}pyrrolidin-2-carbonitrile]	–	0.0223 µM
N#CC[C@H]1CC[C@@H](NCC(=O)N2C[C@@H](F)C[C@H]2C#N)C1 [Example-7, (2S,4S)-1-{2-[(3S,1R)-3-Cyanomethylcyclopentylamino]acetyl}-4-fluoro-2-pyrrol-idinecarbonitrile]	–	0.00429 µM
CCCCc1nc(Cl)c(C#N)n1CC1CCC(NCC(=O)N2CCC[C@H]2C#N)C1 (mixture of isomers) [Example-32, 2-n-Butyl-4-chloro-1-((1SR,3RS)-3-{2-[(2S)-2-cyanopyrrolidin-1-yl]-2-oxoethyl-amino}cyclopentylmethyl)-1H-5-imidazolecarbonitrile]	–	0.00346 µM
N#CC[C@@H]1CC[C@H](NCC(=O)N2C[C@@H](F)C[C@H]2C#N)C1 [Example-8, (2S,4S)-1-{2-1[(3R,1S)-3-Cyanomethylcyclopentylamino]acetyl}-4-fluoro-2-pyrro-idinecarbonitrile]	–	0.00436 µM
N#C[C@@H]1CCCN1C(=O)CNC1CCC(Cn2cncn2)C1 (mixture of isomers) [Example-36, (2S)-1-{2-[(3SR,1RS)-3-(1H-1,2,4-Triazol-1-ylmethyl)cyclopentylamino]acetyl}-pyrrolidine-2-carbonitrile]	–	0.006 µM
N#C[C@@H]1CCCN1C(=O)CN[C@@H]1CC[C@H](Cn2nnc(-c3ccc(F)cc3)n2)C1 [Example-62, (2S)-1-(2-{(3S,1R)-3-[5-(4-Fluorophenyl)-2H-1,2,3,4-tetrazol-2-ylmethyl]cyclo-pentylamino}acetyl)pyrrolidine-2-carbonitrile]	–	0.00873 µM
